Tests used:
[1] = (§1) The drug is tested on WLS-006 corresponding to human gut metagenome with ENA study accession number: PRJEB37062 and ENA sample accession number: ERS12561741 for biotransformation under anaerobic condition. The drug concentrations were measured over 9 timepoints collected between 0 and 24 hours of incubation by liquid-chromatography-coupled mass spectrometry (LC–MS); conditions: 2 µM
[2] = human gut metagenome, 24 h, 2 µM
[3] = human gut metagenome, 24 h, 2 µM; remark: listed apart in the source
[4] = human gut metagenome, 24 h, 2 µM; remark: listed apart in the source
[5] = human gut metagenome, 24 h, 2 µM; remark: listed apart in the source
[6] = human gut metagenome, 24 h, 2 µM; remark: listed apart in the source
[7] = as §1, with “Z-024” for “WLS-006”, “pig” for “human”, “ERS12561823” for “ERS12561741”; conditions: 2 µM
[8] = as §1, with “WLS-073” for “WLS-006”, “ERS12561749” for “ERS12561741”; conditions: 2 µM
[9] = as §1, with “Z-027” for “WLS-006”, “to” for “to human gut”, “ERS12561826” for “ERS12561741”; conditions: 2 µM
Note: call rule not given here.

Structure (SMILES)	Bacterial Biotransformation [1]	Bacterial Biotransformation [2]	Bacterial Biotransformation [3]	Bacterial Biotransformation [4]	Bacterial Biotransformation [5]	Bacterial Biotransformation [6]	Bacterial Biotransformation [7]	Bacterial Biotransformation [8]	Bacterial Biotransformation [9]
CCOC(=O)[C@H](CCc1ccccc1)N[C@@H](C)C(=O)N1[C@H](C(=O)O)C[C@@H]2CCC[C@@H]21	Compound metabolized	Compound metabolized	Compound metabolized	Compound metabolized	Compound metabolized	Compound metabolized	Compound metabolized	Compound metabolized	Compound NOT metabolized
CCN(CC)CCNC(C(=O)OCCC(C)C)c1ccccc1.Cl.Cl (stereo unspecified)	Compound metabolized	Compound metabolized	Compound metabolized	Compound metabolized	Compound metabolized	Compound metabolized	Compound metabolized	Compound metabolized	Compound NOT metabolized
CCCC(=O)Nc1ccc(OCC(O)CNC(C)C)c(C(C)=O)c1 (stereo unspecified) [ACEBUTOLOL]	Compound NOT metabolized	Compound metabolized	Compound metabolized	Compound metabolized	Compound metabolized	Compound metabolized	Compound NOT metabolized	Compound NOT metabolized	Compound NOT metabolized
C=CCc1ccccc1OCC(O)CNC(C)C (stereo unspecified) [ALPRENOLOL]	Compound NOT metabolized	Compound metabolized	Compound metabolized	Compound metabolized	Compound metabolized	Compound metabolized	Compound metabolized	Compound NOT metabolized	Compound metabolized
CN1CCc2cccc3c2[C@H]1Cc1ccc(O)c(O)c1-3 [APOMORPHINE]	Compound NOT metabolized	Compound NOT metabolized	Compound NOT metabolized	Compound NOT metabolized	Compound NOT metabolized	Compound NOT metabolized	Compound metabolized	Compound NOT metabolized	Compound NOT metabolized
C[C@@H]1CC[C@H]2[C@@H](C)C(=O)O[C@@H]3O[C@@]4(C)CC[C@@H]1[C@]32OO4 [ARTEMISININ]	Compound metabolized	Compound metabolized		Compound metabolized	Compound metabolized		Compound metabolized	Compound metabolized	Compound metabolized
CC(C)c1c(C(=O)Nc2ccccc2)c(-c2ccccc2)c(-c2ccc(F)cc2)n1CC[C@@H](O)C[C@@H](O)CC(=O)O [ATORVASTATIN]	Compound metabolized	Compound metabolized	Compound metabolized	Compound NOT metabolized	Compound metabolized	Compound metabolized	Compound NOT metabolized	Compound NOT metabolized	Compound NOT metabolized
CCOC(=O)[C@H](CCc1ccccc1)N[C@H]1CCc2ccccc2N(CC(=O)O)C1=O [BENAZEPRIL]	Compound metabolized	Compound metabolized	Compound metabolized	Compound metabolized	Compound metabolized	Compound metabolized	Compound metabolized	Compound metabolized	Compound NOT metabolized
NS(=O)(=O)c1cc2c(cc1Cl)N=C(CSCc1ccccc1)NS2(=O)=O [BENZTHIAZIDE]	Compound NOT metabolized	Compound NOT metabolized	Compound NOT metabolized	Compound NOT metabolized	Compound NOT metabolized	Compound NOT metabolized	Compound metabolized	Compound NOT metabolized	Compound NOT metabolized
CC(C)NCC(O)COc1ccc(COCCOC(C)C)cc1.CC(C)NCC(O)COc1ccc(COCCOC(C)C)cc1.O=C(O)/C=C/C(=O)O (stereo unspecified) [BISOPROLOL FUMARATE]	Compound metabolized	Compound metabolized	Compound metabolized	Compound NOT metabolized	Compound metabolized	Compound metabolized	Compound metabolized	Compound NOT metabolized	Compound NOT metabolized
CCCCCOC(=O)Nc1nc(=O)n([C@@H]2O[C@H](C)[C@@H](O)[C@H]2O)cc1F [CAPECITABINE]	Compound metabolized	Compound metabolized	Compound metabolized	Compound metabolized	Compound metabolized	Compound metabolized	Compound metabolized	Compound metabolized	Compound metabolized
Cc1ccc(-c2cc(C(F)(F)F)nn2-c2ccc(S(N)(=O)=O)cc2)cc1 [CELECOXIB]	Compound metabolized	Compound metabolized	Compound metabolized	Compound metabolized	Compound metabolized	Compound metabolized	Compound NOT metabolized	Compound metabolized	Compound NOT metabolized
CN1C(=O)CCS(=O)(=O)C1c1ccc(Cl)cc1 (stereo unspecified) [CHLORMEZANONE]	Compound metabolized	Compound NOT metabolized	Compound NOT metabolized	Compound NOT metabolized	Compound metabolized	Compound NOT metabolized	Compound NOT metabolized	Compound NOT metabolized	Compound NOT metabolized
Clc1ccc(Cn2c(CN3CCCC3)nc3ccccc32)cc1 [CLEMIZOLE]	Compound metabolized	Compound metabolized	Compound metabolized	Compound metabolized	Compound metabolized	Compound metabolized	Compound metabolized	Compound NOT metabolized	Compound NOT metabolized
CN1CCN(C2=Nc3cc(Cl)ccc3Nc3ccccc32)CC1 [CLOZAPINE]	Compound NOT metabolized	Compound metabolized	Compound metabolized	Compound metabolized	Compound metabolized	Compound metabolized	Compound NOT metabolized	Compound NOT metabolized	Compound NOT metabolized
COc1cc2c(c(OC)c1OC)-c1ccc(OC)c(=O)cc1[C@@H](NC(C)=O)CC2 [COLCHICINE]	Compound metabolized	Compound metabolized	Compound metabolized	Compound NOT metabolized	Compound metabolized	Compound metabolized	Compound NOT metabolized	Compound metabolized	Compound NOT metabolized
C#C[C@]1(O)CC[C@H]2[C@@H]3CCC4=Cc5oncc5C[C@]4(C)[C@H]3CC[C@@]21C [DANAZOL]	Compound metabolized	Compound metabolized				Compound metabolized	Compound metabolized	Compound metabolized	Compound metabolized
COc1c2occc2cc2ccc(=O)oc12 [METHOXSALEN]	Compound metabolized	Compound metabolized	Compound metabolized	Compound metabolized	Compound metabolized		Compound metabolized		Compound metabolized
Cc1nc2n(c(=O)c1CCN1CCC(c3noc4cc(F)ccc34)CC1)CCCC2 [RISPERIDONE]	Compound metabolized	Compound metabolized	Compound metabolized	Compound metabolized	Compound metabolized	Compound metabolized	Compound metabolized		Compound metabolized
CN(C)CCc1c[nH]c2ccc(Cn3cncn3)cc12.O=C(O)c1ccccc1 [RIZATRIPTAN BENZOATE]	Compound NOT metabolized	Compound NOT metabolized	Compound NOT metabolized	Compound NOT metabolized		Compound NOT metabolized	Compound NOT metabolized	Compound NOT metabolized	Compound NOT metabolized
